Results: patent publication US12600717B2, “Tricyclic compounds as inhibitors of KRAS” (Incyte Corporation, priority 2021, dated 2026)

Assays:
[1] = target: KRAS G12D (Homo sapiens, UniProt P01116, G12D); assay: GDP-GTP exchange assay (bodipy-GDP/GppNHp, SOS1), KRAS G12D; type: biochemical; conditions: bodipy-loaded KRAS G12D 2.5 nM, 4 hours pre-incubation with inhibitor, 2 hours after GppNHp/SOS1; read-out: G12D_exchange IC50
Experimental: (§1) The inhibitor potency of the exemplified compounds was determined in a fluorescence based guanine nucleotide exchange assay, which measures the exchange of bodipy-GDP (fluorescently labeled GDP) for GppNHp (Non-hydrolyzable GTP analog) to generate the active state of KRAS in the presence of SOS1 (guanine nucleotide exchange factor). Inhibitors were serially diluted in DMSO and a volume of 0.1 μL was transferred to the wells of a black low volume 384-well plate. 5 μL/well volume of bodipy-loaded KRAS G12D diluted to 2.5 nM in assay buffer (25 mM Hepes pH 7.5, 50 mM NaCl, 10 mM MgCl2 and 0.01% Brij-35) was added to the plate and pre-incubated with inhibitor for 4 hours at ambient temperature. Appropriate controls (enzyme with no inhibitor or with a G12D inhibitor) were included on the plate. The exchange was initiated by the addition of a 5 μL/well volume containing 1 mM GppNHp and 300 nM SOS1 in assay buffer. The 10 μL/well reaction concentration of the bodipy-loaded KRAS G12D, GppNHp, and SOS1 were 2.5 nM, 500 uM, and 150 nM, respectively. The reaction plates were incubated at ambient temperature for 2 hours, a time estimated for complete GDP-GTP exchange in the absence of inhibitor. For the KRAS G12V mutant, similar guanine nucleotide exchange assays were used with 2.5 nM as final concentration for the bodipy loaded KRAS proteins and 3 hours incubation after adding GppNHp-SOS1 mixture. A cyclic peptide described to selectively bind G12D mutant (Sakamoto et al., BBRC 484.3 (2017), 605-611) or internal compounds with confirmed binding were used as positive controls in the assay plates. Fluorescence intensities were measured on a PheraStar plate reader instrument (BMG Labtech) with excitation at 485 nm and emission at 520 nm.
(§2) Either GraphPad prism or Genedata Screener SmartFit was used to analyze the data. The IC50 values were derived by fitting the data to a four parameter logistic equation producing a sigmoidal dose-response curve with a variable Hill coefficient.
(§3) The symbol “†” indicates IC50≤100 nM, “††” indicates IC50>100 nM but ≤1 μM; and “†††” indicates IC50 is >1 μM but ≤5 μM, “††††” indicates IC50 is >5 μM but ≤10 μM. “NA” indicates IC50 not available.

[2] = target: KRAS G12V (Homo sapiens, UniProt P01116, G12V); assay: GDP-GTP exchange assay (bodipy-GDP/GppNHp, SOS1), KRAS G12V; type: biochemical; conditions: bodipy-loaded KRAS G12V 2.5 nM, 3 hours incubation after adding GppNHp-SOS1; read-out: G12V_exchange IC50
Experimental: as §1, §2, §3

Sequence of KRAS G12V (P01116 1-188 isoform P01116-2 G12V): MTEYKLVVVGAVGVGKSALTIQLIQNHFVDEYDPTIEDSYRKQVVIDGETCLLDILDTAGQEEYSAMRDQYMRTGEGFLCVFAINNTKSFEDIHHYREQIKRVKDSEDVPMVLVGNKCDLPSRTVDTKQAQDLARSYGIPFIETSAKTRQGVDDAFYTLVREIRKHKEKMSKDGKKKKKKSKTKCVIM
Sequence of KRAS G12D (P01116 1-188 isoform P01116-2 G12D): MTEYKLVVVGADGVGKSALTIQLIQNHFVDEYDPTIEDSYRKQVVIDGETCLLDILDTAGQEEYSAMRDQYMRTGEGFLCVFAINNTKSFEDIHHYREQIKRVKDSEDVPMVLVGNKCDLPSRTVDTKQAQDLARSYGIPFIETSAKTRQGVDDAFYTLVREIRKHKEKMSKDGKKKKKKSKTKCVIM

Structure (SMILES) | IC50 [1] | IC50 [2]
CN1CCC[C@H]1COc1nc2c(F)c(-c3cc(O)cc4ccccc34)c(CCC#N)cc2c2c1nc(-c1cn(C3CCC3)nn1)n2C1C2CNC1C2 (single isomer, unassigned) [Example 27a] | ≤ 0.1 µM | ≤ 0.1 µM
CN(C)C(=O)CCc1nc2c(N3CC(N(C)C)C3)nc3c(F)c(-c4nc(N)cc5ccccc45)c(CCC#N)cc3c2n1C1C2CNC1C2 (single isomer, unassigned) [Example 31a, 3-(7-(3-aminoisoquinolin-1-yl)-1-endo-(2-azabicyclo[2.1.1]hexan-5-yl)-8-(2-cyanoethyl)-4-(3-(dimethylamino)azetidin-1-yl)-6-fluoro-1H-imidazo[4,5-c]quinolin-2-yl)-N,N-dimethylpropanamide] | 0.1 to 1 µM | 5 to 10 µM
CN(C)C(=O)CCc1nc2c(N3CC(N(C)C)C3)nc3c(F)c(-c4nc(N)ccc4C(F)(F)F)c(CCC#N)cc3c2n1C1C2CNC1C2 (single isomer, unassigned) [Example 32a, 3-(7-(6-amino-3-(trifluoromethyl)pyridin-2-yl)-1-endo-(2-azabicyclo[2.1.1]hexan-5-yl)-8-(2-cyanoethyl)-4-(3-(dimethylamino)azetidin-1-yl)-6-fluoro-1H-imidazo[4,5-c]quinolin-2-yl)-N,N-dimethylpropanamide] | 0.1 to 1 µM | 5 to 10 µM
CN(C)C1CN(c2nc3c(F)c(-c4cc(O)cc5ccccc45)c(CCC#N)cc3c3c2nc(-c2ccn(-c4ccccc4)n2)n3C2C3CNC2C3)C1 (single isomer, unassigned) [Example 34a, 3-(1-((endo)-2-azabicyclo[2.1.1]hexan-5-yl)-4-(3-(dimethylamino)azetidin-1-yl)-6-fluoro-7-(3-hydroxynaphthalen-1-yl)-2-(1-phenyl-1H-pyrazol-3-yl)-1H-imidazo[4,5-c]quinolin-8-yl)propanenitrile] | ≤ 0.1 µM | ≤ 0.1 µM
CCn1ccc(-c2nc3c(N4CC(N(C)C)C4)nc4c(F)c(-c5cc(O)cc6ccccc56)c(CCC#N)cc4c3n2C2C3CNC2C3)n1 (single isomer, unassigned) [Example 35a, 3-(1-((endo)-2-azabicyclo[2.1.1]hexan-5-yl)-4-(3-(dimethylamino)azetidin-1-yl)-2-(1-ethyl-1H-pyrazol-3-yl)-6-fluoro-7-(3-hydroxynaphthalen-1-yl)-1H-imidazo[4,5-c]quinolin-8-yl)propanenitrile] | ≤ 0.1 µM | ≤ 0.1 µM
CN(C)C1CN(c2nc3c(F)c(-c4cc(O)cc5ccccc45)c(CCC#N)cc3c3c2nc(-c2ccn(Cc4ccccc4)n2)n3C2C3CNC2C3)C1 (single isomer, unassigned) [Example 36a, 3-(2-(1-benzyl-1H-pyrazol-3-yl)-1-((endo)-2-azabicyclo[2.1.1]hexan-5-yl)-4-(3-(dimethylamino)azetidin-1-yl)-6-fluoro-7-(3-hydroxynaphthalen-1-yl)-1H-imidazo[4,5-c]quinolin-8-yl)propanenitrile] | 0.1 to 1 µM | ≤ 0.1 µM
CN(C)C1CN(c2nc3c(F)c(-c4cc(O)cc5ccccc45)c(CCC#N)cc3c3c2nc(CCc2ncccn2)n3C2C3CNC2C3)C1 (single isomer, unassigned) [Example 37, 3-(1-((endo)-2-azabicyclo[2.1.1]hexan-5-yl)-4-(3-(dimethylamino)azetidin-1-yl)-6-fluoro-7-(3-hydroxynaphthalen-1-yl)-2-(2-(pyrimidin-2-yl)ethyl)-1H-imidazo[4,5-c]quinolin-8-yl)propanenitrile] | ≤ 0.1 µM | ≤ 0.1 µM
CN(C)C1CN(c2nc3c(F)c(-c4cc(O)cc5ccccc45)c(CCC#N)cc3c3c2nc(-c2ccc4[nH]ncc4c2)n3C2C3CNC2C3)C1 (single isomer, unassigned) [Example 38a] | 0.1 to 1 µM | ≤ 0.1 µM

The remaining lines, values ahead:

IC50 [1] | IC50 [2] | Structure (SMILES)
≤ 0.1 µM | ≤ 0.1 µM | CCc1nc2c(-c3ccc(=O)n(CC)c3)nc3c(F)c(-c4cc(O)cc5ccccc45)c(CCC#N)cc3c2n1C1C2CNC1C2 (single isomer, unassigned) [Example 18, 3-(1-((endo)-2-Azabicyclo[2.1.1]hexan-5-yl)-2-ethyl-4-(1-ethyl-6-oxo-1,6-dihydropyridin-3-yl)-6-fluoro-7-(3-hydroxynaphthalen-1-yl)-1H-imidazo[4,5-c]quinolin-8-yl)propanenitrile]
≤ 0.1 µM | ≤ 0.1 µM | CCc1nc2c(-c3ccc(C(=O)NC)nc3)nc3c(F)c(-c4cc(O)cc5ccccc45)c(CCC#N)cc3c2n1C1C2CNC1C2 (single isomer, unassigned) [Example 19a, 5-(1-((endo)-2-Azabicyclo[2.1.1]hexan-5-yl)-8-(2-cyanoethyl)-2-ethyl-6-fluoro-7-(3-hydroxynaphthalen-1-yl)-1H-imidazo[4,5-c]quinolin-4-yl)-N-methylpicolinamide]
≤ 0.1 µM | 0.1 to 1 µM | CCc1nc2c(-c3ncco3)nc3c(F)c(-c4cc(O)cc5ccccc45)c(CCC#N)cc3c2n1C1C2CNC1C2 (single isomer, unassigned) [Example 20a, 3-(1-((endo)-2-Azabicyclo[2.1.1]hexan-5-yl)-2-ethyl-6-fluoro-7-(3-hydroxynaphthalen-1-yl)-4-(oxazol-2-yl)-1H-imidazo[4,5-c]quinolin-8-yl)propanenitrile]
≤ 0.1 µM | ≤ 0.1 µM | CCc1nc2c(-c3ccn4ncnc4c3)nc3c(F)c(-c4cc(O)cc5ccccc45)c(CCC#N)cc3c2n1C1C2CNC1C2 (single isomer, unassigned) [Example 21a, 3-(4-([1,2,4]Triazolo[1,5-a]pyridin-7-yl)-1-((endo)-2-azabicyclo[2.1.1]hexan-5-yl)-2-ethyl-6-fluoro-7-(3-hydroxynaphthalen-1-yl)-1H-imidazo[4,5-c]quinolin-8-yl)propanenitrile]
≤ 0.1 µM | 0.1 to 1 µM | CCc1nc2c(-c3ccnc(N4CCN(C)CC4)c3)nc3c(F)c(-c4cc(O)cc5ccccc45)c(CCC#N)cc3c2n1C1C2CNC1C2 (single isomer, unassigned) [Example 22a, 3-(1-((endo)-2-Azabicyclo[2.1.1]hexan-5-yl)-2-ethyl-6-fluoro-7-(3-hydroxynaphthalen-1-yl)-4-(2-(4-methylpiperazin-1-yl)pyridin-4-yl)-1H-imidazo[4,5-c]quinolin-8-yl)propanenitrile]
≤ 0.1 µM | ≤ 0.1 µM | CCc1nc2c(C)nc3c(F)c(-c4cc(O)cc5ccccc45)c(CCC#N)cc3c2n1C1C2CNC1C2 (single isomer, unassigned) [Example 23a, 3-(1-((endo)-2-Azabicyclo[2.1.1]hexan-5-yl)-2-ethyl-6-fluoro-7-(3-hydroxynaphthalen-1-yl)-4-methyl-1H-imidazo[4,5-c]quinolin-8-yl)propanenitrile]
≤ 0.1 µM | 0.1 to 1 µM | CCc1nc2c(Oc3ccccc3)nc3c(F)c(-c4cc(O)cc5ccccc45)c(CCC#N)cc3c2n1C1C2CNC1C2 (single isomer, unassigned) [Example 24a, 3-(1-((endo)-2-Azabicyclo[2.1.1]hexan-5-yl)-2-ethyl-6-fluoro-7-(3-hydroxynaphthalen-1-yl)-4-phenoxy-1H-imidazo[4,5-c]quinolin-8-yl)propanenitrile]
≤ 0.1 µM | 0.1 to 1 µM | CN(C)C1CN(c2nc3c(F)c(-c4cc(O)cc5ccccc45)c(CCC#N)cc3c3c2nc(C2CC2)n3C2C3CNC2C3)C1 (single isomer, unassigned) [Example 25a, 3-(1-((endo)-2-Azabicyclo[2.1.1]hexan-5-yl)-2-cyclopropyl-4-(3-(dimethylamino)azetidin-1-yl)-6-fluoro-7-(3-hydroxynaphthalen-1-yl)-1H-imidazo[4,5-c]quinolin-8-yl)propanenitrile]
≤ 0.1 µM | ≤ 0.1 µM | CN(C)C1CN(c2nc3c(F)c(-c4cc(O)cc5ccccc45)c(CCC#N)cc3c3c2nc(-c2cn(C4CCNCC4)nn2)n3C2C3CNC2C3)C1 (single isomer, unassigned) [Example 26a, 3-(1-((endo)-2-Azabicyclo[2.1.1]hexan-5-yl)-4-(3-(dimethylamino)azetidin-1-yl)-6-fluoro-7-(3-hydroxynaphthalen-1-yl)-2-(1-(piperidin-4-yl)-1H-1,2,3-triazol-4-yl)-1H-imidazo[4,5-c]quinolin-8-yl)propanenitrile]
